How the values were obtained:
mouse TRPA1 (mTRPA1) = target: T1, mouse TRPA1 (mTRPA1) (Mus musculus, UniProt Q8BLA8); test: FLIPR calcium signaling assay in mTRPA1-transfected HEK293 cells; assay type: cell-based; settings: Schild plot against ASP7663-induced calcium influx, mTRPA1
T1 construct: host or cells: HEK293 (ATCC CRL-1573), transient transfection
Experimental: HEK293 cells (#CRL-1573, ATCC, VA, USA) were cultured in DMEM media (#11995-065, Sigma-Aldrich, MO, USA) with 10% Fetal Bovine Serum (#F0926-500ML, Thermo Fisher, MA, USA). The cells were maintained in a 37 °C incubator with consistent 5% CO2. They were seeded in a clear 6 well flat bottom cell culture plates (#07-200-83, Corning ®, Thermo Fisher) with 500,000 cells/2 ml/well for transfection, in serum-free Opti-MEM (#31985070, Gibco®, Thermo Fisher). These cells were transfected with pcDNA3.1-mTRPA1 (#MR227099, OriGene, MD, USA), pcDNA3.1-zTRPA1a, or pcDNA3.1-zTRPA1b (a gift from Dr. David Prober) using X-tremeGENE^TM 9 (#6365809001, Sigma-Aldrich). After 24 hours, the transfected cells were dislodged with trypsin, resuspended in Opti-MEM, and seeded 25,000 cells/25 µl/well in 384-well black polystyrene microplates (#82051-296, VWR, PA, USA) for testing calcium signaling the following day. Experiments were carried out with the approval of the Institutional Biohazard Committee (#13-013-16).
Twenty-five µl calcium sensitive Fluorescent Imaging Plate Reader (FLIPR) Calcium 6 assay dye (#R8190, Molecular Devices, CA, USA) was added to each well of a 384-well plate containing HEK293 cells transiently expressing mTRPA1, zTRPA1a, and zTRPA1b, respectively. The cells were incubated for an hour prior to the recording of intracellular calcium levels in a FlexStation3 Multi-Mode Microplate Reader (#R8190, Molecular Devices) as previously described. All compounds were diluted in calcium buffer made with 1x HBSS (#14025-092, Thermo Fisher), 20 mM HEPES (#15630-080, Thermo Fisher), and 2.5 mM Probenecid (#P8761, Sigma-Aldrich). For agonist studies, ASP7663 (#5178, Tocris, Bristol, UK) was diluted in 1% DMSO-containing calcium buffer at desired concentrations and was added during the recording. The TRPA1 antagonists HC-030031 (#2896, Tocris), TCS-5861528 (#3938, Tocris), and A-967079 (#4716, Tocris) were diluted in calcium buffer, and 5 µl of 10x solutions were added 10 minutes prior to the recording. The same amount of DMSO (1%) was added to all control groups to maintain similar DMSO levels with the experimental groups. During the assay, the cells were challenged by a 5x ASP7663 solution or 1% DMSO solution at the 20 seconds time point, and both solutions were diluted in calcium buffer. Relative fluorescence units (RFU) were measured for 120 seconds period by the Flexstation. Area under the curve (AUC) was further evaluated from individual calcium influx data (Supplemental Figs 2 and 4) to plot does-response curve of antagonists. For each specific antagonist concentration we plotted Log(dose ratio-1) against the antagonist concentration in a Schild plot. The dose ratio (A’/A) equals the EC50 of the agonist ([…]) in the presence of a concentration of the antagonist (A’) divided by the EC50 of the agonist in the absence of antagonist (A). The x-intercept of the Schild plot was used to identify the antagonist-receptor affinity (pA2).
All data are presented as means ± standard error of the mean (SEM). For our in vitro statistical analysis, AUC of calcium influx (RFU) was measured to plot dose-response curves, which were further analyzed by nonlinear regression analysis. Mean RFU of the first 10 seconds was used as a baseline of the AUC. EC50 values of the dose-response curves were further used to plot Schild curves, and the curves were analyzed with linear regression analysis. For the mice von Frey test, mechanical thresholds were analyzed with two-way ANOVA followed by a Bonferonni test for multiple comparison analysis. For the zebrafish behavior test, the data from the first five seconds following drug administration were excluded, as zebrafish displacement during that period was highly influenced by liquid dispensing. AUC of all curves were measured and analyzed by one-way ANOVA. The post-hoc analysis was conducted with the Tukey’s or Dunnett’s multiple comparisons unless it stated otherwise. […]

rat TRPA1 = tested on: rat TRPA1; set-up: method as in PMID 21402443; settings: cited from earlier work

T1 sequence (Q8BLA8 whole entry): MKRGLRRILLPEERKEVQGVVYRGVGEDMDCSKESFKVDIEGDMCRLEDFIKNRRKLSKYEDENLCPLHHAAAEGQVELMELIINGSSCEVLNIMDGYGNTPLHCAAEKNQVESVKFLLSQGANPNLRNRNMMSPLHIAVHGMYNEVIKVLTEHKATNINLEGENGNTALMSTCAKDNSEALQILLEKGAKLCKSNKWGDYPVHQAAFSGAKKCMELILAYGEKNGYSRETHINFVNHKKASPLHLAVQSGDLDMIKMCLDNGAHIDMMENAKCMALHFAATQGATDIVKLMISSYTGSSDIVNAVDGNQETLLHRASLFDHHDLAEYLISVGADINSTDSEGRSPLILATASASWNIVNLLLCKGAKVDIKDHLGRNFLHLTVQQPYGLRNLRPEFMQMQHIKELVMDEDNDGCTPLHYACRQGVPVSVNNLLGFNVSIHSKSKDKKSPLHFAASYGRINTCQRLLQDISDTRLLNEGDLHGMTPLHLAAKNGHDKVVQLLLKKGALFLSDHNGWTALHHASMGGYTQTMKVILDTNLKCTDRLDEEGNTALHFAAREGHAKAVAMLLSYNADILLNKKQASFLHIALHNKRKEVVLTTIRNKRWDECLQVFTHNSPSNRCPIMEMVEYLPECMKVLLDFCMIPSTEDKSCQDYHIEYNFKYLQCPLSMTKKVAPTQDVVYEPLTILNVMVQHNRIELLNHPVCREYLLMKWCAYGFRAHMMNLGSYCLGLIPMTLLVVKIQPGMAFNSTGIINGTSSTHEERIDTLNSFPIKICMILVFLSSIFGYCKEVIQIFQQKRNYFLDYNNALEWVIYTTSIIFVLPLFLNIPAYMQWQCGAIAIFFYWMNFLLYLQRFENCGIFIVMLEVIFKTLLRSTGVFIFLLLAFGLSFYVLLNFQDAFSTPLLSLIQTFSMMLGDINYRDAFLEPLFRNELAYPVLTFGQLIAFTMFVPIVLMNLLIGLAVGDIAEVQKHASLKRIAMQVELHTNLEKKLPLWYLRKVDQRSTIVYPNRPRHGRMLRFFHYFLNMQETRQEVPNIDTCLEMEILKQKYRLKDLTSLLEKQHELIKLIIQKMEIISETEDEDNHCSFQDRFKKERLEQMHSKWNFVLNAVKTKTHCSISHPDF

SMILES	pA2 (mouse TRPA1 (mTRPA1))	pA2 expressed in µM (mouse TRPA1 (mTRPA1))	IC50 (rat TRPA1)	fold stronger than HC-030031 (rat TRPA1)
CCC(C)c1ccc(NC(=O)Cn2cnc3c2c(=O)n(C)c(=O)n3C)cc1 (stereo not drawn) [TCS-5861528]	5.34 ± 0.2	4.6 µM	–	–
CCC(=N\O)/C(C)=C/c1ccc(F)cc1 [A-967076]	7.0 ± 0.3	0.09 µM	289 nM	about 25 fold

Source: publication PMC6382835, “A critical evaluation of TRPA1-mediated locomotor behavior in zebrafish as a screening tool for novel anti-nociceptive drug discovery” (Scientific Reports, 2019)
